Measurements as given in patent US4185015A, “Methoxymethyl 6-[D-2,2-dimethyl-4-(4-hydroxyphenyl)-5-oxo-1-imidazolyl]penicillanate” (priority 1977, dated 1980).
Converted amounts (≈) assume the structure as drawn. Read-outs that look alike come from different tables or passages of the source.

How the values were obtained:
[1] = test system: S. aureus Smith; assay: MIC in Nutrient Broth (Table III); type: cell-based; conditions: Staphylococcus aureus, S. aureus Smith (10^-4)
Excerpt: (§1) Organism in Nutrient Broth
(§2) **Dilution of overnight broth culture

[2] = test system: E. coli; assay: MIC in Nutrient Broth (Table III); type: cell-based; conditions: Escherichia coli; E. coli (10^-4)
Excerpt: as §1, §2

[3] = test system: K. pneumoniae; assay: MIC in Nutrient Broth (Table III); type: cell-based; conditions: Klebsiella pneumoniae
Excerpt: as §1, §2

[4] = test system: Pr. mirabilis; assay: MIC in Nutrient Broth (Table III); type: cell-based; conditions: Proteus mirabilis; Pr. mirabilis (10^-4)
Excerpt: as §1, §2

[5] = test system: Ser. marcescens; assay: MIC in Nutrient Broth (Table III); type: cell-based; conditions: Serratia marcescens; Ser. marcescens (10^-4)
Excerpt: as §1, §2

[6] = test system: Sal. enteritidis; assay: MIC in Nutrient Broth (Table III); type: cell-based; conditions: Salmonella enterica; Sal. enteritidis (10^-4)
Excerpt: as §1, §2

[7] = test system: Ps. aeruginosa; assay: MIC in Nutrient Broth (Table III); type: cell-based; conditions: Pseudomonas aeruginosa
Excerpt: as §1, §2

[8] = test system: Pr. morganii; assay: MIC in Nutrient Broth (Table III); type: cell-based; conditions: Morganella morganii
Excerpt: as §1, §2

[9] = test system: E. coli Juhl; assay: MIC in Nutrient Broth (Table III); type: cell-based; conditions: Escherichia coli; E. coli Juhl (10^-4)
Excerpt: as §1, §2

[10] = test system: S. aureus BX1633; assay: MIC in Nutrient Broth (Table III); type: cell-based; conditions: Staphylococcus aureus
Excerpt: as §1, §2

[11] = test system: S. aureus Meth.-Res.; assay: MIC in Nutrient Broth (Table III); type: cell-based; conditions: Staphylococcus aureus, S. aureus Meth.-Res. (10^-3), read-out: MIC
Excerpt: as §1, §2

[12] = test system: Ent. cloacae; assay: MIC in Nutrient Broth (Table III); type: cell-based; conditions: Enterobacter cloacae, Ent. cloacae (10^-4)
Excerpt: as §1, §2

[13] = test system: Str. pyogenes; assay: MIC in Nutrient Broth (Table III); type: cell-based; conditions: Streptococcus pyogenes, 10^-3 dilution of overnight broth culture, 45% AAB, 5% serum, 50% broth
Excerpt: as §1
(§3) *45% AAB 5% serum 50% broth listed above,
as §2

[14] = test system: Str. pneumoniae; assay: MIC in Nutrient Broth (Table III); type: cell-based; conditions: Streptococcus pneumoniae, 10^-3 dilution of overnight broth culture, 45% AAB, 5% serum, 50% broth
Excerpt: as §1, §3, §2

[15] = in vivo, po
Experimental: Only the latter are biologically active per se. Also, both original ester and parent penicillin were measured.

[16] = in vivo; parameters: species or system mice; conditions: mouse, po, 50 mg/kg
[17] = test system: S. aureus; assay: MIC against various organisms (Table I); type: cell-based; conditions: Staphylococcus aureus, read-out: minimum inhibitory concentration
[18] = test system: Ps. aeruginosa; assay: MIC against various organisms (Table I); type: cell-based; conditions: Pseudomonas aeruginosa, read-out: minimum inhibitory concentration
[19] = test system: D. pneumoniae; assay: MIC against various organisms (Table I); type: cell-based; conditions: Streptococcus pneumoniae; D. pneumoniae + 5% serum; read-out: minimum inhibitory concentration
[20] = test system: Pr. mirabilis; assay: MIC against various organisms (Table I); type: cell-based; conditions: Proteus mirabilis, read-out: minimum inhibitory concentration
[21] = test system: Str. pyogenes; assay: MIC against various organisms (Table I); type: cell-based; conditions: Streptococcus pyogenes; Str. pyogenes + 5% serum; read-out: minimum inhibitory concentration
[22] = test system: K. pneumoniae; assay: MIC against various organisms (Table I); type: cell-based; conditions: Klebsiella pneumoniae, read-out: minimum inhibitory concentration
[23] = test system: E. coli Juhl; assay: MIC against various organisms (Table I); type: cell-based; conditions: Escherichia coli, read-out: minimum inhibitory concentration
[24] = test system: Pr. morganii; assay: MIC against various organisms (Table I); type: cell-based; conditions: Morganella morganii, read-out: minimum inhibitory concentration
[25] = test system: E. coli; assay: MIC against various organisms (Table I); type: cell-based; conditions: Escherichia coli, read-out: minimum inhibitory concentration
[26] = test system: S. aureus Smith; assay: MIC against various organisms (Table I); type: cell-based; conditions: Staphylococcus aureus, read-out: minimum inhibitory concentration
[27] = test system: Ser. marcescens; assay: MIC against various organisms (Table I); type: cell-based; conditions: Serratia marcescens, read-out: minimum inhibitory concentration
[28] = test system: Sal. enteritidis; assay: MIC against various organisms (Table I); type: cell-based; conditions: Salmonella enterica, read-out: minimum inhibitory concentration
[29] = test system: S. aureus BX1633; assay: MIC against various organisms (Table I); type: cell-based; conditions: Staphylococcus aureus

## CC1(C)S[C@@H]2[C@H](NC(=O)[C@H](N)c3ccc(O)cc3)C(=O)N2[C@H]1C(=O)O [Amoxicillin Trihydrate]
[1]
  MIC: 0.13 mg/L
[2]
  MIC: 16 mg/L
[3]
  MIC: > 125 mg/L
[3]; K. pneumoniae (10^-4), first of two lines, read-out: MIC
  MIC: 0.25 mg/L
[4]
  MIC: 0.25 mg/L
[5]
  MIC: 32 mg/L
[6]
  MIC: 0.25 mg/L
[7]
  MIC: > 125 mg/L
[8]
  MIC: > 125 mg/L
[9]
  MIC: 1 mg/L
[10]; BX1633
  MIC: > 125 mg/L
[10]; BX1633, S. aureus BX1633 (10^-3), read-out: MIC
  MIC: 16 mg/L
[11]; 28° C.
  MIC: 32 mg/L
[11]; 37° C.
  MIC: 63 mg/L
[12]; first of three lines
  MIC: > 125 mg/L
[12]; second of three lines, read-out: MIC
  MIC: 63 mg/L
[12]; third of three lines
  MIC: 125 mg/L
[13]
  MIC: 0.016 mg/L
[14]
  MIC: 0.016 mg/L

## COCOC(=O)[C@@H]1N2C(=O)[C@@H](N3C(=O)[C@@H](c4ccccc4)NC3(C)C)[C@H]2SC1(C)C [BL-P1761, methoxymethyl ester of hetacillin]
[15]
  hydrolysis of the ester: hydrolyze eventually to their parent penicillins

## CC1(C)S[C@@H]2[C@H](N3C(=O)[C@@H](c4ccccc4)NC3(C)C)C(=O)N2[C@H]1C(=O)O [Compound 3, D-6-(2,2-dimethyl-5-oxo-4-phenyl-1-imidazolidinyl)penicillanic acid]
[16]
  concentration at 0.5 h: 2 µg/mL
  concentration at 2 h: 1.1 µg/mL
  concentration at 3.5 h: 0.5 µg/mL

## CC1(C)S[C@@H]2[C@H](NC(=O)[C@H](N)c3ccccc3)C(=O)N2[C@H]1C(=O)O [Cpd. A, ampicillin]
[17]; first of three lines
  MIC: 125 mg/L (≈ 358 µM)
[17]; second of three lines
  MIC: 125 mg/L (≈ 358 µM)
[17]; third of three lines
  MIC: > 125 mg/L
[18]
  MIC: > 125 mg/L
[19]
  MIC: 0.004 mg/L
[16]
  concentration at 0.5 h: 3.3 µg/mL
  concentration at 1 h: 2.1 µg/mL
  concentration at 2 h: 0.9 µg/mL
  concentration at 3.5 h: 0.5 µg/mL
[20]
  MIC: 0.16 mg/L (≈ 0.458 µM)
[21]
  MIC: 0.004 mg/L
[22]; K. pneumoniae, first of two lines
  MIC: 0.3 mg/L (≈ 0.859 µM)
[22]
  MIC: 125 mg/L (≈ 358 µM)
[23]
  MIC: 1 mg/L (≈ 2.86 µM)
[24]
  MIC: > 125 mg/L
[25]
  MIC: 32 mg/L (≈ 91.6 µM)
[26]; S. aureus Smith + 50% serum
  MIC: 0.06 mg/L
[26]; S. aureus Smith
  MIC: 0.03 mg/L (≈ 0.0859 µM)
[27]
  MIC: 32 mg/L (≈ 91.6 µM)
[28]
  MIC: 0.13 mg/L (≈ 0.372 µM)
[29]; BX1633, read-out: minimum inhibitory concentration, S. aureus BX1633, first of two lines
  MIC: 125 mg/L (≈ 358 µM)
[29]; BX1633, read-out: minimum inhibitory concentration, S. aureus BX1633, second of two lines
  MIC: > 125 mg/L
